Assay results from paper PMC8465649, “Semaphorin 3A—Glycosaminoglycans Interaction as Therapeutic Target for Axonal Regeneration” (Pharmaceuticals, 2021).

How the values were obtained:
[1] = NMR competition (WaterLOGSY / spin-lock filtered 1H): displacement of FS2/FS3 peptides from heparin agarose resin; format: binding; details: WaterLOGSY; 1:1 peptoid/FS2, both 1 mM; pH 7.5
Protocol: NMR competition experiments involved the acquisition of 1D-^1H WaterLOGSY or spin-lock filtered NMR spectra. Thus, FS2 peptide is displaced from heparin agarose resin by CSIC02 (1:1 peptoid/FS2, both 1 mM), but not by CSIC03 (Figure S15). […] We reasoned that if CSIC02 was able to interact with GAG and displace FS2/FS3 basic peptides, it may also interfere with SCTWT–heparin interaction. To investigate if CSIC02 could displace SCTWT from heparin dp14 and to define the SCTWT residues affected, 2D NMR ^1H-^15N HSQC CSP experiments were used. Figure 8a illustrates the chemical shift effects of CSIC02 addition to a sample of SCTWT containing dp14 heparin. […] In Figure 8b, we display the chemical shift perturbation of SCTWT NMR spectra in the presence of dp14 and CSIC02. Thus, as the two CSP plots in Figure 4b and Figure 8b were calculated using as reference SCTWT alone in solution, we can compare them directly. […] Moreover, splitting of signals for some residues (R733, R734, and Q735 in the first GAG-binding region) was observed (Figure 8c). This observation is compatible with the presence of different species in slow chemical exchange in solution, with partial detachment of SCTWT from heparin. The amount of CSIC02 used in these experiments can be rationalized considering that the SCTWT has ca. 12 positive charges at neutral pH (Figure S18), while CSIC02 is tricationic. Since the binding is mediated by ionic polar interactions, a large excess of CSIC02 is needed to counterbalance the SCTWT-dp14 binding.
Next, 1D ^1H T1ρ relaxation filtered and WaterLOGSY NMR experiments were acquired at 25 °C on a 500-MHz spectrometer (Varian Inova; Agilent Technologies, Santa Clara, CA, USA) equipped with an AutoX inverse double-resonance probe with a z-shielded pulsed-field gradient coil. The samples were prepared in a 5-mm Wilmad NMR 528-PP tubes with 10 mM Tris-d11 (for peptide/GAG samples) and 150 mM NaCl dissolved in 90% H2O/10% D2O at pH 7.5. All spectra were obtained with a sweep width of 8 kHz and 16,384 acquired data points. The experiments were recorded using the standard pulse sequence in the (WLOGSY_ES) Chempack library, with excitation sculpting to suppress water resonances. For Water-LOGSY experiments, the first water-selective 180° pulse was 25 ms long. The spectra were acquired with 1200 transients and a spin-lock pulse of 50 ms at 3.7 kHz. To phase Water-LOGSY spectra correctly, it is necessary to use an internal reference compound. In our case, the reference is the residual ethanol absorbed/bonded in heparin-agarose resin (this interaction was previously confirmed with T1ρ filtered experiments), which appears as a positively phased signal. […]

[2] = tested on: SCTWT–heparin interaction; experiment: 2D 1H-15N HSQC CSP: displacement of SCTWT from dp14 heparin; format: binding, human; details: 0.2 mM SCTWT, 0.05 mM dp14 heparin, 4 mM CSIC02, pH 4.5
Protocol: NMR competition experiments involved the acquisition of 1D-^1H WaterLOGSY or spin-lock filtered NMR spectra. Thus, FS2 peptide is displaced from heparin agarose resin by CSIC02 (1:1 peptoid/FS2, both 1 mM), but not by CSIC03 (Figure S15). […] We reasoned that if CSIC02 was able to interact with GAG and displace FS2/FS3 basic peptides, it may also interfere with SCTWT–heparin interaction. To investigate if CSIC02 could displace SCTWT from heparin dp14 and to define the SCTWT residues affected, 2D NMR ^1H-^15N HSQC CSP experiments were used. Figure 8a illustrates the chemical shift effects of CSIC02 addition to a sample of SCTWT containing dp14 heparin. […] In Figure 8b, we display the chemical shift perturbation of SCTWT NMR spectra in the presence of dp14 and CSIC02. Thus, as the two CSP plots in Figure 4b and Figure 8b were calculated using as reference SCTWT alone in solution, we can compare them directly. […]
Figure 8 (a) Overlay of [^1H-^15N]-HSQC spectra of 0.2 mM Sema3A C-terminal region (orange) highlighting the changes of 0.05 mM (or 0.35 mM in disaccharide units) dp14 heparin oligosaccharide binding in the absence (purple) and the presence (turquoise) of 4 mM CSIC02. […] The absolute values of the chemical shift differences between the presence and absence of dp14 are plotted in ppm and calculated comparing with the chemical shifts of the protein alone. […]

CCN(CC)CCN(CC(=O)N(CCN1CCCC1)CC(=O)N(CCC1CCCN1C)CC(N)=O)C(=O)OCc1ccccc1 (centres unmarked) [CSIC02]
displacement of FS2 peptide from heparin agarose resin [1]: displaced | effect on dp14 heparin-induced chemical shift perturbations of SCTWT [2]: modest decrease in dp14-induced perturbations
